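Tested at 5 concentrations; 48 h exposure; 96-well plates; endpoints linearly interpolated, else capped at highest concentration. GI50 = concentration required for 50% inhibition of growth.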 Calls of active or inactive are those of the source. Rule as the data show it: active = GI50 up to about 1.1 µM and inactive = higher.
Legend:
Assay in all cases: growth of human tumour cells (NCI), 48 h
T47D = tested on: T47D
CCRF-CEM = tested on: CCRF-CEM
K562 = tested on: K562
HCT-15 = tested on: HCT-15
M14 = tested on: M14
SK-MEL-28 = tested on: SK-MEL-28
NCI-H460 = tested on: NCI-H460
NCI/ADR-RES = tested on: NCI/ADR-RES
OVCAR-3 = tested on: OVCAR-3
HOP-62 = tested on: HOP-62
SF-539 = tested on: SF-539
SN12C = tested on: SN12C
HT-29 = tested on: HT-29
RXF 393 = tested on: RXF 393
BT-549 = tested on: BT-549
MDA-N = tested on: MDA-N
SK-OV-3 = tested on: SK-OV-3
OVCAR-8 = tested on: OVCAR-8
SF-268 = tested on: SF-268
HOP-92 = tested on: HOP-92

SMILES | GI50 (T47D) | GI50 (CCRF-CEM) | GI50 (K562) | GI50 (HCT-15) [µM] | GI50 (M14) | GI50 (SK-MEL-28) | GI50 (NCI-H460) | GI50 (NCI/ADR-RES) | GI50 (OVCAR-3) | GI50 (HOP-62) | GI50 (SF-539) | GI50 (SN12C) | GI50 (HT-29) | GI50 (RXF 393) | GI50 (BT-549) | GI50 (MDA-N) | GI50 (SK-OV-3) | GI50 (OVCAR-8) | GI50 (SF-268) | GI50 (HOP-92)
CCOP(=O)(/C=C/n1ccc(N)nc1=O)OCC | > 100 µM (inactive) | > 100 µM (inactive) | > 100 µM (inactive) | > 100 | > 100 µM (inactive) | > 100 µM (inactive) | > 100 µM (inactive) | > 100 µM (inactive) | > 100 µM (inactive) | > 100 µM (inactive) | > 100 µM (inactive) | > 100 µM (inactive) | > 100 µM (inactive) | > 100 µM (inactive) | > 100 µM (inactive) | > 100 µM (inactive) | > 100 µM (inactive) | > 100 µM (inactive) | > 100 µM (inactive) | 
Cc1cn([C@@H]2C[C@@H]2CO)c(=O)[nH]c1=O | > 100 µM (inactive) | > 100 µM (inactive) | > 100 µM (inactive) | > 100 | > 100 µM (inactive) | > 100 µM (inactive) | > 100 µM (inactive) | > 100 µM (inactive) |  | > 100 µM (inactive) | > 100 µM (inactive) | > 100 µM (inactive) | > 100 µM (inactive) | > 100 µM (inactive) | > 100 µM (inactive) | > 100 µM (inactive) |  | > 100 µM (inactive) | > 100 µM (inactive) | > 100 µM (inactive)
NC(=S)Nc1nc(=S)[nH]c2[nH]ccc12 | 58.2 µM (inactive) | 24.2 µM (inactive) | 31 µM (inactive) | 41.7 | > 100 µM (inactive) | > 100 µM (inactive) | > 100 µM (inactive) | > 100 µM (inactive) | 29.7 µM (inactive) | > 100 µM (inactive) | > 100 µM (inactive) | > 100 µM (inactive) | 99.5 µM (inactive) |  | 93.8 µM (inactive) | 98.2 µM (inactive) | > 100 µM (inactive) | 49.3 µM (inactive) | 20.2 µM (inactive) | > 100 µM (inactive)
CN(N=O)C(=N)NC(=O)c1ccccc1 | > 100 µM (inactive) | > 100 µM (inactive) | > 100 µM (inactive) | > 100 | > 100 µM (inactive) |  | 19.3 µM (inactive) | > 100 µM (inactive) | > 100 µM (inactive) | > 100 µM (inactive) | 62.1 µM (inactive) |  | > 100 µM (inactive) | > 100 µM (inactive) | > 100 µM (inactive) | > 100 µM (inactive) | > 100 µM (inactive) | > 100 µM (inactive) | > 100 µM (inactive) | > 100 µM (inactive)
Clc1nc(Cl)c(Cc2ccccc2)c(Cl)n1 | 9.12 µM (inactive) | 3.27 µM (inactive) | 3.08 µM (inactive) | 4.55 | 2.82 µM (inactive) | 10.5 µM (inactive) | > 10 µM (inactive) | 4.8 µM (inactive) | 2.43 µM (inactive) | 6.17 µM (inactive) | 5.3 µM (inactive) | 4.39 µM (inactive) | 3.94 µM (inactive) | 4.21 µM (inactive) | 3.37 µM (inactive) | 3.59 µM (inactive) | 11.5 µM (inactive) | 4.34 µM (inactive) | 18.6 µM (inactive) | 
COc1ccc(C2Oc3c(cccc3OC)C=C2[N+](=O)[O-])cc1OC (centres undefined) | 12.2 µM (inactive) | 1.58 µM (inactive) | 2.58 µM (inactive) | 3.46 | 3.82 µM (inactive) | 4.22 µM (inactive) | 21.5 µM (inactive) | 3.87 µM (inactive) | 11.9 µM (inactive) | 21.2 µM (inactive) |  | 5.55 µM (inactive) | 18.5 µM (inactive) | 2.57 µM (inactive) | 5.47 µM (inactive) | 5.19 µM (inactive) | 4.9 µM (inactive) | 8.93 µM (inactive) | 15.9 µM (inactive) | 
O=C(NNc1nc(-c2ccccc2)cs1)Nc1ccccc1 | 23.2 µM (inactive) | 34.3 µM (inactive) | 34.4 µM (inactive) | 26.6 | 28.5 µM (inactive) | 30.4 µM (inactive) | 24 µM (inactive) | 20.7 µM (inactive) | 13.9 µM (inactive) | 18.7 µM (inactive) |  | 30.9 µM (inactive) | 29 µM (inactive) | 6.14 µM (inactive) | 25.3 µM (inactive) | 24.2 µM (inactive) | 22.6 µM (inactive) | 22.7 µM (inactive) | 27.5 µM (inactive) | 
CC(O)C1(CNc2cc(Cl)nc(N)n2)CCC1 (centres undefined) | 33.3 µM (inactive) | > 100 µM (inactive) | > 100 µM (inactive) | > 100 |  | > 100 µM (inactive) | > 100 µM (inactive) | > 100 µM (inactive) | > 100 µM (inactive) | > 100 µM (inactive) | > 100 µM (inactive) | > 100 µM (inactive) | > 100 µM (inactive) | 24.2 µM (inactive) | > 100 µM (inactive) | > 100 µM (inactive) | > 100 µM (inactive) | > 100 µM (inactive) |  | > 100 µM (inactive)
C=CCN1C(=O)CS/C1=N\NC(=O)CSc1nc2ccccc2c(=O)n1CC | > 100 µM (inactive) | > 100 µM (inactive) | > 100 µM (inactive) | > 100 | > 100 µM (inactive) | > 100 µM (inactive) | 5.37 µM (inactive) | > 100 µM (inactive) | > 100 µM (inactive) | 84.1 µM (inactive) | > 100 µM (inactive) | > 100 µM (inactive) | > 100 µM (inactive) | > 100 µM (inactive) | > 100 µM (inactive) | > 100 µM (inactive) | > 100 µM (inactive) | > 100 µM (inactive) | > 100 µM (inactive) | 
CC(=O)O[C@H]1C[C@H]2[C@@H]([C@H](OC(C)=O)C[C@@H]3CC4(CC[C@@]32C)OOC2(CCCCC2)OO4)[C@@H]2CC[C@H]([C@H](C)CCC(N)=O)[C@@]12C | 1.63 µM (inactive) | 1.28 µM (inactive) | 2.05 µM (inactive) | 2 | 3.33 µM (inactive) | 8.93 µM (inactive) | 1.93 µM (inactive) | 2.2 µM (inactive) | 1.54 µM (inactive) | 0.817 µM (active) | 3.13 µM (inactive) | 2.14 µM (inactive) | 3.4 µM (inactive) | 2.76 µM (inactive) | 2.07 µM (inactive) | 1.95 µM (inactive) | 11.6 µM (inactive) | 2.14 µM (inactive) | 1.66 µM (inactive) | 
COC(=O)[C@H](COC(=O)/C=C/c1ccc(OC(C)=O)c(OC(C)=O)c1)NC(=O)/C=C/c1ccc(OC(C)=O)c(OC(C)=O)c1 | 2.81 µM (inactive) | 5.98 µM (inactive) | > 100 µM (inactive) | 18.8 | 21.2 µM (inactive) | 30.5 µM (inactive) | 22.4 µM (inactive) | 33.7 µM (inactive) | 16.4 µM (inactive) | 17.2 µM (inactive) | 45.1 µM (inactive) | 18.8 µM (inactive) | 22.3 µM (inactive) | 28.5 µM (inactive) | 16.3 µM (inactive) | 17.1 µM (inactive) | 22.2 µM (inactive) | 27.7 µM (inactive) |  | 22.2 µM (inactive)

— ChEMBL document CHEMBL1201862, “PubChem BioAssay data set” (2004)
